Like-named read-outs stand apart in the source and are kept apart here. Each block holds one molecule with its values, some of them ahead of it.
Columns and labels:
[1] = oral, sodium salt; due to alkalinity of the dosage form; cited from earlier work
[2] = in vivo; cited from earlier work
[3] = in vivo, iv; cited from earlier work
[4] = aqueous solubility (compound added in increments to water until solubility was determined); type: physicochemical
Description: The compound was added in increments to water until solubility was determined.

[5] = 37° C.; cited from earlier work
[6] = cited from earlier work
[7] = aqueous; comparison value for the parent; cited from earlier work

SMILES: O=C1NC(=O)C(c2ccccc2)(c2ccccc2)N1.[Na]
gastric irritation [1]: frequently causes gastric irritation | precipitation at the injection site and release [2]: precipitate 5,5-diphenylhydantoin at the injection site leading to delayed and erractic 5,5-diphenylhydantoin release | precipitation and blood levels [3]: frequently leads to precipitation of 5,5-diphenylhydantoin as well as erractic blood levels

solubility ([4]; in water): > 100 mg/mL | increase in aqueous solubility over diphenylhydantoin ([4]; versus diphenylhydantoin per se): ~5,000 fold
SMILES: CN(C)CC(=O)OCN1C(=O)NC(c2ccccc2)(c2ccccc2)C1=O [3-(N,N-dimethylglycyloxymethyl)diphenylhydantoin methanesulfonate]

SMILES: O=C1NC(=O)C(c2ccccc2)(c2ccccc2)N1 [5,5-diphenylhydantoin]
solubility [5]: less than 2 mg. in 100 ml | release patterns ([6]; both in vitro and in vivo): often produces unpredictable and erractic release patterns | bioavailability ([6]; per se as well as from pharmaceutical dosage forms): low bioavailability | solubility of the parent specie [7]: less than 0.02 mg/ml

Source: patent US4163058A, “Derivatives of 5,5-diphenylhydantoin exhibiting enhanced solubility and the therapeutic use thereof” (INTERX Research Corporation, priority 1977, dated 1979)
